# What was measured:
# HIV-1 protease = HIV-1 protease (Human immunodeficiency virus type 1 group M subtype B, UniProt P04585); format: cell-based; conditions: antiviral studies
# PI-resistant strains = experiment: cross-resistance studies against 63 PI-resistant strains; format: cell-based, HIV; conditions: compared with approved protease inhibitors
# laboratory-adapted virus = experiment: 48-week resistance selection study and site-directed mutagenesis in vitro; format: cell-based, HIV
# Procedure: A 48-week resistance selection study was performed by increasing the concentrations of TMB-607 against a laboratory-adapted virus in vitro.
# solubility = format: physicochemical
# HIV = conditions: cited from earlier work
compound,measurement,setting,value
COC(=O)NC(C(=O)NCCCCC(CO)N(CC(C)C)S(=O)(=O)c1ccc(N)cc1)C(c1ccccc1)c1ccccc1 (stereo not drawn) [TMB-607],inhibiting the HIV-1 protease,HIV-1 protease,effective and selective
same,levels of reduced susceptibility,PI-resistant strains,lower levels of reduced susceptibility than any of approved Protease inhibitors (PIs)
same,mutations selected in the protease open reading frame,"laboratory-adapted virus; 48 weeks, increasing concentrations of TMB-607, laboratory-adapted virus in vitro",Four mutations in the protease open reading frame were selected
same,resistance conferred by single mutations,"laboratory-adapted virus; site-directed mutagenesis, in vitro",single mutations did not result in significant resistance
same,solubility,solubility,poor
same,protein binding-adjusted antiviral activity EC50,HIV,0.023 µg/mL
